According to patent publication US20070225351A1, “Methods and compositions for controlling body weight and appetite” (priority 2002, published 2007):

Assay: 13-week oral toxicity study in rats (body weight, food consumption, clinical pathology, organ weights)
Format: in vivo, rat
Conditions: for mean cumulative body weight gain, lower than control: end of 13-week study; for mean body weight, lower than control: end of study
Procedure: One hundred and forty Crl:CD®(SD)IGS BR rats were divided into 7 groups of 20 rats (ten male and ten female). […] Individual body weights were recorded at least weekly, beginning approximately two weeks prior to test article administration (study week-2). Mean body weights and mean body weight changes were calculated for the corresponding intervals. Final body weights (fasted) were recorded prior to the scheduled necropsy.
For toxicology assessment, all animals were observed three times daily for mortality and moribundity. Clinical examinations were performed daily and detailed physical examinations were performed weekly. Following 13 weeks of dose administration, all surviving animals were euthanized.

Cl.Clc1ccc([C@@]23CNC[C@@H]2C3)cc1Cl (single isomer, unassigned) [(+)-1-(3,4-dichlorophenyl)-3-azabicyclo[3.1.0]hexane hydrochloride]
NOAEL at 13 weeks (both sexes, Crl:CD(SD)IGS BR, rat, in vivo, rats, oral administration for 13 weeks, read-out: no-observed-adverse-effect level (NOAEL)): 10 mg/kg/day
mean cumulative body weight gain, lower than control (female rats, 25 mg/kg/day oral): 13%
food consumption, lower than control (female rats, 25 mg/kg/day, first week): 16%
mean cumulative body weight gain, lower than control (female rats, 60 mg/kg/day oral): 13%
mean body weight, lower than control (female rats, 60 mg/kg/day oral): 9%
food consumption, lower than control (female rats, 60 mg/kg/day, first week): 32%
food consumption, lower than control (female rats, 60 mg/kg/day, second week): 11%
weekly food consumption, MEAN (female rats, 10 MG/KG/DAY group, WEEK −2 TO −1 (before dosing)): 18. C/ANIMAL/DAY
weekly food consumption, MEAN (female rats, 10 MG/KG/DAY, WEEK 0 TO 1): 17. C/ANIMAL/DAY
weekly food consumption, MEAN (female rats, 10 MG/KG/DAY, WEEK 1 TO 2): 19. C/ANIMAL/DAY
weekly food consumption, MEAN (female rats, 10 MG/KG/DAY, WEEK 2 TO 3): 20. C/ANIMAL/DAY
weekly food consumption, MEAN (female rats, 10 MG/KG/DAY, WEEK 3 TO 4): 20. C/ANIMAL/DAY
weekly food consumption, MEAN (female rats, 10 MG/KG/DAY, WEEK 4 TO 5): 19. C/ANIMAL/DAY
weekly food consumption, MEAN (female rats, 10 MG/KG/DAY, WEEK 5 TO 6): 18. C/ANIMAL/DAY
weekly food consumption, MEAN (female rats, 10 MG/KG/DAY, WEEK 6 TO 7): 18. C/ANIMAL/DAY
weekly food consumption, MEAN (female rats, 10 MG/KG/DAY, WEEK 7 TO 8): 18. C/ANIMAL/DAY
weekly food consumption, MEAN (female rats, 10 MG/KG/DAY, WEEK 8 TO 9): 18. C/ANIMAL/DAY
weekly food consumption, MEAN (female rats, 10 MG/KG/DAY, WEEK 9 TO 10): 18. C/ANIMAL/DAY
weekly food consumption, MEAN (female rats, 10 MG/KG/DAY, WEEK 10 TO 11): 18. C/ANIMAL/DAY
weekly food consumption, MEAN (female rats, 10 MG/KG/DAY, WEEK 11 TO 12): 18. C/ANIMAL/DAY
weekly food consumption, MEAN (female rats, 10 MG/KG/DAY, WEEK 12 TO 13): 17. C/ANIMAL/DAY
weekly food consumption, MEAN (female rats, 25 MG/KG/DAY group, WEEK −2 TO −1 (before dosing)): 17. C/ANIMAL/DAY
weekly food consumption, MEAN (female rats, 25 MG/KG/DAY, WEEK 0 TO 1): 16.** C/ANIMAL/DAY
weekly food consumption, MEAN (female rats, 25 MG/KG/DAY, WEEK 1 TO 2): 20. C/ANIMAL/DAY
weekly food consumption, MEAN (female rats, 25 MG/KG/DAY, WEEK 2 TO 3): 10. C/ANIMAL/DAY
weekly food consumption, MEAN (female rats, 25 MG/KG/DAY, WEEK 3 TO 4): 20. C/ANIMAL/DAY
weekly food consumption, MEAN (female rats, 25 MG/KG/DAY, WEEK 4 TO 5): 18. C/ANIMAL/DAY
weekly food consumption, MEAN (female rats, 25 MG/KG/DAY, WEEK 5 TO 6): 19. C/ANIMAL/DAY
weekly food consumption, MEAN (female rats, 25 MG/KG/DAY, WEEK 6 TO 7): 18. C/ANIMAL/DAY
weekly food consumption, MEAN (female rats, 25 MG/KG/DAY, WEEK 7 TO 8): 17. C/ANIMAL/DAY
weekly food consumption, MEAN (female rats, 25 MG/KG/DAY, WEEK 8 TO 9): 19. C/ANIMAL/DAY
weekly food consumption, MEAN (female rats, 25 MG/KG/DAY, WEEK 9 TO 10): 18. C/ANIMAL/DAY
weekly food consumption, MEAN (female rats, 25 MG/KG/DAY, WEEK 10 TO 11): 18. C/ANIMAL/DAY
weekly food consumption, MEAN (female rats, 25 MG/KG/DAY, WEEK 11 TO 12): 18. C/ANIMAL/DAY
weekly food consumption, MEAN (female rats, 25 MG/KG/DAY, WEEK 12 TO 13): 17. C/ANIMAL/DAY
weekly food consumption, MEAN (female rats, 60 MG/KG/DAY group, WEEK −2 TO −1 (before dosing)): 17. C/ANIMAL/DAY
weekly food consumption, MEAN (female rats, 60 MG/KG/DAY, WEEK 0 TO 1): 13.** C/ANIMAL/DAY
weekly food consumption, MEAN (female rats, 60 MG/KG/DAY, WEEK 1 TO 2): 17.* C/ANIMAL/DAY
weekly food consumption, MEAN (female rats, 60 MG/KG/DAY, WEEK 2 TO 3): 18. C/ANIMAL/DAY
weekly food consumption, MEAN (female rats, 60 MG/KG/DAY, WEEK 3 TO 4): 16. C/ANIMAL/DAY
weekly food consumption, MEAN (female rats, 60 MG/KG/DAY, WEEK 4 TO 5): 17. C/ANIMAL/DAY
weekly food consumption, MEAN (female rats, 60 MG/KG/DAY, WEEK 5 TO 6): 18. C/ANIMAL/DAY
weekly food consumption, MEAN (female rats, 60 MG/KG/DAY, WEEK 6 TO 7): 18. C/ANIMAL/DAY
weekly food consumption, MEAN (female rats, 60 MG/KG/DAY, WEEK 7 TO 8): 18. C/ANIMAL/DAY
weekly food consumption, MEAN (female rats, 60 MG/KG/DAY, WEEK 8 TO 9): 18. C/ANIMAL/DAY
weekly food consumption, MEAN (female rats, 60 MG/KG/DAY, WEEK 9 TO 10): 17. C/ANIMAL/DAY
weekly food consumption, MEAN (female rats, 60 MG/KG/DAY, WEEK 10 TO 11): 17. C/ANIMAL/DAY
weekly food consumption, MEAN (female rats, 60 MG/KG/DAY, WEEK 11 TO 12): 18. C/ANIMAL/DAY
weekly food consumption, MEAN (female rats, 60 MG/KG/DAY, WEEK 12 TO 13): 17. C/ANIMAL/DAY
mean cumulative body weight gain, lower than control (male rats, 25 mg/kg/day oral): 16%
mean body weight, lower than control (male rats, 25 mg/kg/day oral): 10%
food consumption, lower than control (male rats, 25 mg/kg/day, first week): 8%
mean cumulative body weight gain, lower than control (male rats, 60 mg/kg/day oral): 30%
mean body weight, lower than control (male rats, 60 mg/kg/day oral): 18%
food consumption, lower than control (male rats, 60 mg/kg/day, first week): 19%
food consumption, lower than control (male rats, 60 mg/kg/day, second week): 4%
alanine aminotransferase (ALT) level (rat, in vivo, 60 mg/kg/day): higher
alkaline phosphatase (ALP), higher (rat, in vivo, 60 mg/kg/day): 35-55%
bilirubin, higher (rat, in vivo, 60 mg/kg/day): 35-55%
